The source of these data is patent EP1370276B1, “INTERCELLULAR COMMUNICATION FACILITATING COMPOUNDS AND THEIR MEDICAL USE” (Zealand Pharma A/S, priority 2001, dated 2002).

Where two headings read alike, the source gives them in different places.

One test deals with human osteoblastic cells. Nature of the test: DDT-induced uncoupling, Lucifer Yellow dye transfer in human osteoblastic cells. Format: cell-based. To be noted: 10^-8 mol/l, 10 minutes, after DDT 13 µM for 60 minutes. The method, then: Human osteoblast cells: Cells were isolated from human bone marrow obtained by puncture of the posterior iliac spine of healthy volunteers (aged 20-36): 10-15 ml marrow material was collected in 15 ml PBS + Ca, Mg (Life Technologies, Cat.No. 14040) with 100 U/ml Heparin (Sigma, Cat.No. H-3149). The mononuclear fraction of the marrow was isolated on a Lymphoprep gradient (Nycomed Pharma, Cat.No. 1001967), by centrifugation at 2200 rpm for 30 min. After harvesting, the mononuclear fraction was washed once with culture medium and centrifuged at 1800 rpm for 10 min. Subsequently cells were counted and plated in culture medium at 8x10^6 cells/100 mm dish. hOB medium (all reagents obtained from Life Technologies): MEM w/o Phenol Red w/ Glutamax (Cat.No. 041-93013) supplemented with 10% heat inactivated fetal calf serum (Cat.No. 10106) and 0.1% Penicillin/Streptomycin (Cat.No. 15140). Medium was changed the following day and the cells were cultured at 37°C in 5%CO2 with medium change every 7 days. After 3-4 weeks of culture the cells had reached 70% confluence. The medium was then supplemented with 100 nM Dexamethasone (Sigma, Cat.No. D-4902) for 7 days. Cells were then plated for video imaging experiments: a 25 mm #1 glass coverslip was placed in a 35 mm dish (or each well of a 6-well multidish), cells were plated at 2.5x10^5 cells/coverslip and cultured for 2-3 days before use. […]

The target in test [1] is murine heart tissue preparations. In words: Displacement of [125I]AAP10 from murine heart tissue preparations. Format: binding, mice. The method, then:
Hearts are excised from mice (Balb/cJ, 20 g), rinsed twice in ice-cold (0°C) 0.32 M sucrose and homogenized on ice in 10 volumes of sucrose with an Ultra Turrax homogeniser (1000 rpm) for 2 minutes. The homogenate is centrifuged at 1000 gmea" for 10 minutes at 4° C and the supernatant collected and filtrated through 4 layers of gauze. The filtrate is then centrifuged at 50,000 gmean for 45 min at 4° C and the pellet resuspended in 10 volorg. wet weight ice-cold distilled water and incubated for 60 min at 0° C and re-centrifuged at 50,000 gmean at 45 min at 4° C. The resulting pellet is resuspended in 2 vol org. wet weight of PBS (Phosphate Buffered Saline) and stored at - 80° C until use.
A general note: Loss of bound radioactivity is the signal in a displacement assay; it reports binding, not function.

The test system of the next test is CHO cells. Nature of the test: In situ binding of [125I]AAP10 on intact CHO cells. To be noted: overnight at 4° C. The method, then:
CHO cells are seeded in 24-multi well dishes in a density of 7,900 cells/cm^2 (∼ 15,000 cells/well) and grown for 3 Days In Vitro (DIV) in 1 ml/well of F-12K Nutrient Mixture supplemented with 10% Foetal Calf Serum (FCS) and 1000 units penicillin/1000 µg streptomycin (pen/strep) in an atmosphere of 5% CO2 and 100% humidity at 37° C. The cell density has at that time increased to 295,000 cells/cm^2 (152 pgprot/cell ∼ 85 µgprot/well).
On the day of analysis cells are removed from the incubator and each well is washed twice with, depending on the experiment, either 2 ml pre-warmed (37 °C) or ice-cold (0 °C) D-PBS to remove serum. It is important to keep the period to a minimum during which cells are left without physiological solutions to avoid that they dry out during washing procedures. The cold washed cells are used directly for binding assays while the warm washed cells are used for experiments with glucose and oxygen deprivation.
The in situ binding is performed by a modified protocol based on the description by Koenig. […] Cells incubate overnight at 4° C to reach equilibrium. Each well, one at the time, is then rinsed rapidly with 2 x 1 ml D-PBS and left to dry.
0.25 ml of 0.5 % Triton-X-100 (v/v) is added to each well and cells left for at least 1 h to solubilize. The extract is transferred to counting vials, the wells rinsed with 0.25 ml water and the rinse extract added to the corresponding vials. The vials are counted in a γ-counter. Table 3. In situ binding, IC50 (nM).

Test [2] has as its system phosphoinositol turnover in rat primary cardiomyocytes. To be noted: oxygen and glucose deprivation (untreated app. 50%); conference abstract; cited from earlier work.

As to “Ac-D-Tyr-D-Pro-D-4Hyp-Gly-D-Ala-Gly-NH2 [Compound 2]”, the “cell-to-cell dye transfer, median” value with human osteoblastic cells was 8.3 cells. Also, the IC50 in test [1] (displacement of 0.8 nM [125I]AAP10, filtrate, read-out: Filtrate IC50) worked out at 3.6 nM; in test [1] (displacement of 0.8 nM [125I]AAP10, membranes, read-out: Membranes IC50), 1.2 nM; in the test with CHO cells it was 0.5 nM. Further, in test [2], the “noradrenalin-induced PI turnover, % of the normal level” value is ~90%.

The IC50 is the concentration needed to halve the response being measured.
